The subject of this test is P388 leukemia ip, CD2F1 mice, survival T/C. The test can be described thus: NCI In Vivo Anticancer Drug Screen. Data for tumor model P388 Leukemia (intraperitoneal) in CD2F1 (CDF1) mice. Conditions: endpoint: median survival time, higher = longer survival. The method in brief:
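Mice carrying the transplanted tumor received test compound or vehicle. Survival was recorded in each group, and the value is the treated-group measurement divided by that of the vehicle-treated control group.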

Setting [1] is: dose: 50.0 mg/kg/injection, schedule: Q01DX009 (ip), vehicle: saline with Tween-80.
Setting [2] is: dose: 100.0 mg/kg/injection, schedule: Q01DX009 (ip), vehicle: saline with Tween-80.
The mark [3] stands for this setting: dose: 200.0 mg/kg/injection, schedule: Q01DX009 (ip), vehicle: saline with Tween-80.

Where “and” joins values, the source holds several entries; their conditions need not be identical. Equal entries are not always repeated. Toxic doses and inconclusive results are not listed.

For the compound `CO[C@H]1C[C@](C)(O)Cc2cc3c(c(O)c21)C(=O)c1c(O)cc2c(c1C3=O)O[C@@H]1O[C@@]2(C)[C@H](O)[C@@H](N(C)C)[C@@H]1O`, the T/C by setting is: (dose: 1.5 mg/kg/injection, schedule: Q01DX005 (iv), vehicle: clinical formulation) 115 % of control; (dose: 1.56 mg/kg/injection, schedule: Q01DX009 (ip), vehicle: other) 156 % of control and 166 % of control; (dose: 1.6 mg/kg/injection, schedule: Q01DX009 (oral), vehicle: other) 95 % of control; (dose: 2.5 mg/kg/injection, schedule: Q01DX005 (ip), vehicle: clinical formulation) 158 % of control and 166 % of control; (dose: 2.5 mg/kg/injection, schedule: Q01DX005 (ip), vehicle: other) 165 % of control; (dose: 3.0 mg/kg/injection, schedule: Q01DX005 (iv), vehicle: other) 124 % of control. In addition, the T/C is, setting by setting: (dose: 3.0 mg/kg/injection, schedule: Q01DX009 (ip), vehicle: other) 159 % of control; (dose: 3.12 mg/kg/injection, schedule: Q01DX009 (ip), vehicle: saline + alcohol) 157 % of control; (dose: 3.13 mg/kg/injection, schedule: Q01DX009 (oral), vehicle: other) 100 % of control and 102 % of control; (dose: 3.13 mg/kg/injection, schedule: Q01DX009 (oral), vehicle: saline) 103 % of control; (dose: 4.5 mg/kg/injection, schedule: Q01DX005 (ip), vehicle: other) 156 % of control and 161 % of control; (dose: 4.5 mg/kg/injection, schedule: Q01DX005 (iv), vehicle: clinical formulation) 160 % of control and 169 % of control. For the same compound, the T/C reads like this: (dose: 5.0 mg/kg/injection, schedule: Q01DX005 (ip), vehicle: clinical formulation) 185 % of control and 190 % of control; (dose: 5.0 mg/kg/injection, schedule: Q01DX005 (ip), vehicle: distilled water + Tween-80) 158 % of control and 178 % of control; (dose: 5.0 mg/kg/injection, schedule: Q01DX005 (ip), vehicle: other) 185 % of control; (dose: 6.25 mg/kg/injection, schedule: Q01DX009 (ip), vehicle: saline + alcohol) 157 % of control; (dose: 6.25 mg/kg/injection, schedule: Q01DX009 (oral), vehicle: other) 110 % of control and 113 % of control and 122 % of control; (dose: 6.25 mg/kg/injection, schedule: Q04DX003 (ip), vehicle: other) 162 % of control and 165 % of control. Moreover, the T/C is 180 % of control (dose: 6.48 mg/kg/injection, schedule: Q04DX003 (ip), vehicle: other); 172 % of control and 176 % of control (dose: 6.7 mg/kg/injection, schedule: Q01DX005 (ip), vehicle: other); 187 % of control and 197 % of control (dose: 6.7 mg/kg/injection, schedule: Q01DX005 (iv), vehicle: clinical formulation); 161 % of control and 162 % of control (dose: 6.7 mg/kg/injection, schedule: Q01DX005 (iv), vehicle: other); 235 % of control and 238 % of control (dose: 10.0 mg/kg/injection, schedule: Q01DX005 (ip), vehicle: clinical formulation); 180 % of control and 243 % of control (dose: 10.0 mg/kg/injection, schedule: Q01DX005 (ip), vehicle: distilled water + Tween-80). Besides, the T/C reads like this: (dose: 10.0 mg/kg/injection, schedule: Q01DX005 (ip), vehicle: other) 195 % of control (2×) and 218 % of control; (dose: 10.0 mg/kg/injection, schedule: Q01DX005 (iv), vehicle: clinical formulation) 208 % of control and 211 % of control; (dose: 10.0 mg/kg/injection, schedule: Q01DX005 (iv), vehicle: other) 176 % of control and 193 % of control; (dose: 10.8 mg/kg/injection, schedule: Q04DX003 (ip), vehicle: other) 183 % of control; (dose: 12.5 mg/kg/injection, schedule: Q01DX001 (ip), vehicle: other) 155 % of control and 157 % of control; (dose: 12.5 mg/kg/injection, schedule: Q01DX001 (sc), vehicle: other) 103 % of control. Besides, the T/C is 178 % of control (dose: 12.5 mg/kg/injection, schedule: Q01DX009 (ip), vehicle: saline + alcohol); 158 % of control (dose: 12.5 mg/kg/injection, schedule: Q01DX009 (oral), vehicle: other); 156 % of control (dose: 12.5 mg/kg/injection, schedule: Q01DX009 (oral), vehicle: saline); 166 % of control and 187 % of control (dose: 12.5 mg/kg/injection, schedule: Q04DX003 (ip), vehicle: other); 224 % of control and 237 % of control (dose: 15.0 mg/kg/injection, schedule: Q01DX005 (ip), vehicle: other); 215 % of control and 224 % of control (dose: 15.0 mg/kg/injection, schedule: Q01DX005 (iv), vehicle: clinical formulation). In addition, the T/C (dose: 15.0 mg/kg/injection, schedule: Q01DX005 (iv), vehicle: other) was 196 % of control; the T/C (dose: 15.0 mg/kg/injection, schedule: Q01DX009 (oral), vehicle: other) is 197 % of control; the T/C (dose: 18.0 mg/kg/injection, schedule: Q04DX003 (ip), vehicle: other) is 240 % of control; the T/C (dose: 20.0 mg/kg/injection, schedule: Q01DX005 (ip), vehicle: clinical formulation) is 117 % of control and 284 % of control; the T/C (dose: 20.0 mg/kg/injection, schedule: Q01DX005 (ip), vehicle: distilled water + Tween-80) is 270 % of control and 280 % of control; the T/C (dose: 20.0 mg/kg/injection, schedule: Q01DX005 (ip), vehicle: other) is 284 % of control. Also, the T/C was 231 % of control (dose: 22.0 mg/kg/injection, schedule: Q01DX009 (oral), vehicle: other); 346 % of control (dose: 22.5 mg/kg/injection, schedule: Q01DX005 (ip), vehicle: other); 150 % of control and 160 % of control (dose: 25.0 mg/kg/injection, schedule: Q01DX001 (ip), vehicle: other); 106 % of control and 112 % of control (dose: 25.0 mg/kg/injection, schedule: Q01DX001 (sc), vehicle: other); 231 % of control (dose: 25.0 mg/kg/injection, schedule: Q01DX009 (ip), vehicle: saline + alcohol); 111 % of control and 211 % of control and 96 % of control (dose: 25.0 mg/kg/injection, schedule: Q01DX009 (oral), vehicle: other). Also, the T/C (dose: 25.0 mg/kg/injection, schedule: Q01DX009 (oral), vehicle: saline) was 229 % of control; the T/C (dose: 25.0 mg/kg/injection, schedule: Q04DX003 (ip), vehicle: other) was 192 % of control and 193 % of control; the T/C (dose: 30.0 mg/kg/injection, schedule: Q04DX003 (ip), vehicle: other) was 247 % of control; the T/C (dose: 50.0 mg/kg/injection, schedule: Q01DX001 (ip), vehicle: other) was 157 % of control and 197 % of control; the T/C (dose: 50.0 mg/kg/injection, schedule: Q01DX001 (sc), vehicle: other) is 100 % of control and 122 % of control; the T/C (dose: 50.0 mg/kg/injection, schedule: Q01DX009 (oral), vehicle: other) is 101 % of control and 103 % of control and 91 % of control. Also, the T/C (dose: 50.0 mg/kg/injection, schedule: Q01DX009 (oral), vehicle: saline) was 91 % of control; the T/C (dose: 50.0 mg/kg/injection, schedule: Q04DX003 (ip), vehicle: other) was 182 % of control and 252 % of control; the T/C (dose: 100.0 mg/kg/injection, schedule: Q01DX001 (ip), vehicle: other) is 169 % of control; the T/C (dose: 100.0 mg/kg/injection, schedule: Q01DX001 (sc), vehicle: other) is 105 % of control; the T/C (dose: 200.0 mg/kg/injection, schedule: Q01DX001 (ip), vehicle: other) was 175 % of control; the T/C (dose: 200.0 mg/kg/injection, schedule: Q04DX003 (ip), vehicle: other) was 95 % of control.
`Clc1ccccc1C(Nc1ncccn1)Nc1ncccn1`: the T/C is, setting by setting: (dose: 50.0 mg/kg/injection, schedule: Q01DX005 (ip), vehicle: Klucel (hydroxypropylcellulose) (HPC)) 93 % of control; (dose: 100.0 mg/kg/injection, schedule: Q01DX005 (ip), vehicle: Klucel (hydroxypropylcellulose) (HPC)) 93 % of control; (dose: 200.0 mg/kg/injection, schedule: Q01DX005 (ip), vehicle: Klucel (hydroxypropylcellulose) (HPC)) 96 % of control.
On to `C[Si](C)(C)n1nnn(-c2ccccc2)c1=O`, for which the T/C is, setting by setting: under setting [1], 99 % of control and 116 % of control; under setting [2], 112 % of control; under setting [3], 106 % of control.
On to `O=C1CSC(=S)N1C1CC1`, for which the T/C reads like this: under setting [1], 95 % of control; under setting [2], 86 % of control; under setting [3], 87 % of control.

The record behind these values is PubChem BioAssay AID330 (DTP/NCI, 2004).
